Reference: US12030879B2, “Sulfonyl acetamides as NLRP3 inhibitors” (Inflazome Limited, priority 2018, dated 2024)
pIC50: −log10 of the molar value.

target: T1, NLRP3 (Homo sapiens, UniProt Q96P20); assay: THP-1 cells pyroptosis assay; format: cell-based; settings: LPS 1 μg/ml, compound 3 hrs, nigericin 5 μM 1 hr, resazurin readout
T1 construct: Seed THP-1 cells (25,000 cells/well) containing 1.0 μg/ml LPS in 40 μl of RPMI medium; host or cells: THP-1 cells
Description: THP-1 cells (ATCC #TIB-202) were grown in RPMI containing L-glutamine (Gibco #11835) supplemented with 1 mM sodium pyruvate (Sigma #S8636) and penicillin (100 units/ml)/streptomycin (0.1 mg/ml) (Sigma #P4333) in 10% Fetal Bovine Serum (FBS) (Sigma #F0804). The cells were routinely passaged and grown to confluency (10^6 cells/ml). On the day of the experiment, THP-1 cells were harvested and resuspended into RPMI medium (without FBS). The cells were then counted and viability (>90%) checked by Trypan blue (Sigma #T8154). Appropriate dilutions were made to give a concentration of 625,000 cells/ml. To this diluted cell solution was added LPS (Sigma #L4524) to give a 1 μg/ml Final Assay Concentration (FAC). 40 μl of the final preparation was aliquoted into each well of a 96-well plate. The plate thus prepared was used for compound screening.
The following method step-by-step assay was followed for compound screening. • 1. Seed THP-1 cells (25,000 cells/well) containing 1.0 μg/ml LPS in 40 μl of RPMI medium (without FBS) in 96-well, black walled, clear bottom cell culture plates coated with poly-D-lysine (VWR #734-0317) • 2. Add 5 μl compound (8 points half-log dilution, with 10 μM top dose) or vehicle (DMSO 0.1% FAC) to the appropriate wells • 3. Incubate for 3 hrs at 37° C., 5% CO2 • 4. Add 5 μl nigericin (Sigma #N7143) (FAC 5 μM) to all wells • 5. Incubate for 1 hr at 37° C., 5% CO2 • 6. At the end of the incubation period, spin plates at 300×g for 3 mins and remove supernatant • 7. Then add 50 μl of resazurin (Sigma #R7017)(FAC 100 μM resazurin in RPMI medium without FBS) and incubate plates for a further 1-2 hrs at 37° C. and 5% CO2 • 8. Plates were read in an Envision reader at Ex 560 nm and Em 590 nm • 9. IC50 data is fitted to a non-linear regression equation (log inhibitor vs response-variable slope 4-parameters) 96-well Plate Map

T1 sequence (Q96P20 whole entry): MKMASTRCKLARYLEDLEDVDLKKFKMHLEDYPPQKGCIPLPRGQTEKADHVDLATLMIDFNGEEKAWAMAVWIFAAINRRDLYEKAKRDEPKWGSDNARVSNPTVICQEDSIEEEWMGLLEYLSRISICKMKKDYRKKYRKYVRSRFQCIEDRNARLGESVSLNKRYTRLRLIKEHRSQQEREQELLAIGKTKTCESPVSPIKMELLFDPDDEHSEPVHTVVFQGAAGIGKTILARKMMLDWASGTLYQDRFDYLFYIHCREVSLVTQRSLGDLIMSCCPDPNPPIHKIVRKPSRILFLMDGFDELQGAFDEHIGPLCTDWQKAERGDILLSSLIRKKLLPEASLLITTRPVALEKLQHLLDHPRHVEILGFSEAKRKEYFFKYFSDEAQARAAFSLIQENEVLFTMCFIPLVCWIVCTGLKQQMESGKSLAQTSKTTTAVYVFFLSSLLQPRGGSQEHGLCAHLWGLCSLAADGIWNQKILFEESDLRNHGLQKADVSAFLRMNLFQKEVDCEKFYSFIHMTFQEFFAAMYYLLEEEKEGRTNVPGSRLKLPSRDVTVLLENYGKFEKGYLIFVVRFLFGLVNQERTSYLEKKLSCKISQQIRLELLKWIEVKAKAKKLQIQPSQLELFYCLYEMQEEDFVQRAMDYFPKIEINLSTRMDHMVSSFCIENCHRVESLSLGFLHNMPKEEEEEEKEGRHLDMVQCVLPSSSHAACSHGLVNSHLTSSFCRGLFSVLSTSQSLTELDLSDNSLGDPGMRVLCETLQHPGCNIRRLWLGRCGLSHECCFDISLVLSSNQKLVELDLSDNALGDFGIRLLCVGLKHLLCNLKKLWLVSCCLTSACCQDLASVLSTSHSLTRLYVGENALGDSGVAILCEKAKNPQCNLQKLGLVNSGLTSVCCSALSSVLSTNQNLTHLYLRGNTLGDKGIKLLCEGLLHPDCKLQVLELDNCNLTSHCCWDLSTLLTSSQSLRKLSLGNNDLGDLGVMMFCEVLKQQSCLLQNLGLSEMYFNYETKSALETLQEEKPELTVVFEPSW

`COc1cc(-c2cc(F)cc(C(C)(C)F)c2CC(=O)NS(=O)(=O)c2ccc(C(C)(C)O)cc2C)ccn1` [Example 86, 2-(4-Fluoro-2-(2-fluoropropan-2-yl)-6-(2-methoxypyridin-4-yl)phenyl)-N-((4-(2-hydroxypropan-2-yl)-2-methylphenyl)sulfonyl)acetamide] and `COc1cc(-c2cc(F)cc(C(C)(C)F)c2CC(=O)NS(=O)(=O)c2cc(C(C)(C)O)cs2)ccn1` [Example 87, 2-(4-Fluoro-2-(2-fluoropropan-2-yl)-6-(2-methoxypyridin-4-yl)phenyl)-N-((4-(2-hydroxypropan-2-yl)thiophen-2-yl)sulfonyl)acetamide] cannot be ordered by pIC50: at least 5.30 for the first, at least 6.30 for the second.

`COc1cc(-c2cc(F)cc(C(C)C)c2CC(=O)NS(=O)(=O)c2ccc(C(C)(C)NC(C)=O)c(F)c2)ccn1` [Example 88, N-((4-(2-Acetamidopropan-2-yl)-3-fluorophenyl)sulfonyl)-2-(4-fluoro-2-isopropyl-6-(2-methoxypyridin-4-yl)phenyl)acetamide] and `COc1cc(-c2cc(F)cc(C(C)C)c2CC(=O)NS(=O)(=O)c2ccc(C(C)(C)NC(=O)OC(C)(C)C)c(F)c2)ccn1` [Example 90, tert-Butyl (2-(2-fluoro-4-(N-(2-(4-fluoro-2-isopropyl-6-(2-methoxypyridin-4-yl)phenyl)acetyl)sulfamoyl)phenyl)propan-2-yl)carbamate] cannot be ordered by pIC50: at least 5.30 for the first, at least 6.30 for the second.

`COc1cc(-c2cc(F)cc(C(C)C)c2CC(=O)NS(=O)(=O)c2cccc(C(C)(C)O)c2)ccn1` [Example 89, 2-(4-Fluoro-2-isopropyl-6-(2-methoxypyridin-4-yl)phenyl)-N-((3-(2-hydroxypropan-2-yl)phenyl)sulfonyl)acetamide] and `COc1cc(-c2cc(F)cc(C(C)C)c2CC(=O)NS(=O)(=O)c2ccc(C(C)(C)O)c(Cl)c2)ccn1` [Example 98, N-((3-Chloro-4-(2-hydroxypropan-2-yl)phenyl)sulfonyl)-2-(4-fluoro-2-isopropyl-6-(2-methoxypyridin-4-yl)phenyl)acetamide] cannot be ordered by pIC50: at least 6.00 for the first, at least 6.30 for the second.

`COc1cc(-c2cc(F)cc(C(C)C)c2CC(=O)NS(=O)(=O)c2ccc(C(C)(C)N(C)C)c(F)c2)ccn1` [Example 91, N-((4-(2-(Dimethylamino)propan-2-yl)-3-fluorophenyl)sulfonyl)-2-(4-fluoro-2-isopropyl-6-(2-methoxypyridin-4-yl)phenyl)acetamide] and `COc1cc(-c2cc(F)cc(C(C)C)c2CC(=O)NS(=O)(=O)c2ccc(Cl)c(C)c2)ccn1` [Example 101, N-((4-Chloro-3-methylphenyl)sulfonyl)-2-(4-fluoro-2-isopropyl-6-(2-methoxypyridin-4-yl)phenyl)acetamide] cannot be ordered by pIC50: at least 5.30 for the first, at least 6.30 for the second.

`COC(=O)c1cc(S(=O)(=O)NC(=O)Cc2c(-c3ccnc(OC)c3)cc(F)cc2C(C)C)ccc1F` [Example 92, Methyl 2-fluoro-5-(N-(2-(4-fluoro-2-isopropyl-6-(2-methoxypyridin-4-yl)phenyl)acetyl)sulfamoyl)benzoate] and `COc1cc(-c2cc(F)cc(C(C)C)c2CC(=O)NS(=O)(=O)c2ccc(C(=O)N(C)C)c(Cl)c2)ccn1` [Example 96, 2-Chloro-4-(N-(2-(4-fluoro-2-isopropyl-6-(2-methoxypyridin-4-yl)phenyl)acetyl)sulfamoyl)-N,N-dimethylbenzamide] cannot be ordered by pIC50: at least 5.30 for the first, at least 5.00 for the second.

`COc1cc(-c2cc(F)cc(C(C)C)c2CC(=O)NS(=O)(=O)c2ccc(Cl)cc2)ccn1` [Example 93, N-((4-Chlorophenyl)sulfonyl)-2-(4-fluoro-2-isopropyl-6-(2-methoxypyridin-4-yl)phenyl)acetamide] and `COc1cc(-c2cc(F)cc(C(C)C)c2CC(=O)NS(=O)(=O)c2ccc(C)cc2)ccn1` [Example 112, 2-(4-Fluoro-2-isopropyl-6-(2-methoxypyridin-4-yl)phenyl)-N-tosylacetamide] cannot be ordered by pIC50: at least 6.00 for the first, at least 5.30 for the second.

`COc1cc(-c2cc(F)cc(C(C)C)c2CC(=O)NS(=O)(=O)c2cnc3c(c2)c(C)nn3C)ccn1` [Example 94, N-((1,3-Dimethyl-1H-pyrazolo[3,4-b]pyridin-5-yl)sulfonyl)-2-(4-fluoro-2-isopropyl-6-(2-methoxypyridin-4-yl)phenyl)acetamide] and `COc1cc(-c2cc(F)cc(C(C)C)c2CC(=O)NS(=O)(=O)c2ccc(O)nc2C)ccn1` [Example 102, 2-(4-Fluoro-2-isopropyl-6-(2-methoxypyridin-4-yl)phenyl)-N-((6-hydroxy-2-methylpyridin-3-yl)sulfonyl)acetamide] cannot be ordered by pIC50: at least 6.00 for the first, at least 5.00 for the second.

`COc1cc(-c2cc(F)cc(C(C)C)c2CC(=O)NS(=O)(=O)c2ccc(NC(C)=O)cc2)ccn1` [Example 95, N-((4-Acetamidophenyl)sulfonyl)-2-(4-fluoro-2-isopropyl-6-(2-methoxypyridin-4-yl)phenyl)acetamide] and `COc1cc(-c2cc(F)cc(C(C)C)c2CC(=O)NS(=O)(=O)c2ccccc2)ccn1` [Example 111, 2-(4-Fluoro-2-isopropyl-6-(2-methoxypyridin-4-yl)phenyl)-N-(phenylsulfonyl)acetamide] cannot be ordered by pIC50: at least 5.00 for the first, at least 5.30 for the second.

`COc1ccc(-c2cc(F)cc(C(C)C)c2CC(=O)NS(=O)(=O)c2ccc(C(C)(C)O)cc2C)cn1` [Example 97, 2-(4-Fluoro-2-isopropyl-6-(6-methoxypyridin-3-yl)phenyl)-N-((4-(2-hydroxypropan-2-yl)-2-methylphenyl)sulfonyl)acetamide] and `Cc1cnccc1-c1cc(F)cc(C(C)C)c1CC(=O)NS(=O)(=O)c1cc(C(C)(C)O)cs1` [Example 100, 2-(4-Fluoro-2-isopropyl-6-(3-methylpyridin-4-yl)phenyl)-N-((4-(2-hydroxypropan-2-yl)thiophen-2-yl)sulfonyl)acetamide] cannot be ordered by pIC50: at least 5.30 for the first, at least 6.30 for the second.

`COc1ccncc1-c1cc(F)cc(C(C)C)c1CC(=O)NS(=O)(=O)c1cc(C(C)(C)O)cs1` [Example 99, 2-(4-Fluoro-2-isopropyl-6-(4-methoxypyridin-3-yl)phenyl)-N-((4-(2-hydroxypropan-2-yl)thiophen-2-yl)sulfonyl)acetamide] and `COc1cc(-c2cc(F)cc(C(C)C)c2CC(=O)NS(=O)(=O)c2cnc(C(C)(C)O)s2)ccn1` [Example 108, 2-(4-Fluoro-2-isopropyl-6-(2-methoxypyridin-4-yl)phenyl)-N-((2-(2-hydroxypropan-2-yl)thiazol-5-yl)sulfonyl)acetamide] cannot be ordered by pIC50: at least 6.30 for the first, at least 5.30 for the second.

`COc1cc(-c2cc(F)cc(C(C)C)c2C(F)C(=O)NS(=O)(=O)c2cc(C(C)(C)O)co2)ccn1` (stereo not drawn) [Example 103, 2-Fluoro-2-(4-fluoro-2-isopropyl-6-(2-methoxypyridin-4-yl)phenyl)-N-((4-(2-hydroxypropan-2-yl)furan-2-yl)sulfonyl)acetamide] and `COc1cc(-c2cc(F)cc(C(C)C)c2C(F)C(=O)NS(=O)(=O)c2cc(C(C)(C)O)cs2)ccn1` (stereo not drawn) [Example 104, 2-Fluoro-2-(4-fluoro-2-isopropyl-6-(2-methoxypyridin-4-yl)phenyl)-N-((4-(2-hydroxypropan-2-yl)thiophen-2-yl)sulfonyl)acetamide] cannot be ordered by pIC50: at least 5.00 for the first, at least 5.30 for the second.

`COc1cc(-c2ccc3c(c2CC(=O)NS(=O)(=O)c2ncc(C(C)(C)O)s2)CCC3)ccn1` [Example 105, N-((5-(2-Hydroxypropan-2-yl)thiazol-2-yl)sulfonyl)-2-(5-(2-methoxypyridin-4-yl)-2,3-dihydro-1H-inden-4-yl)acetamide] and `COc1cc(-c2ccc3c(c2CC(=O)NS(=O)(=O)c2cnc(C(C)(C)O)s2)CCC3)ccn1` [Example 107, N-((2-(2-Hydroxypropan-2-yl)thiazol-5-yl)sulfonyl)-2-(5-(2-methoxypyridin-4-yl)-2,3-dihydro-1H-inden-4-yl)acetamide] cannot be ordered by pIC50: at least 5.00 for the first, at least 5.30 for the second.

`COc1cc(-c2cc(F)cc(C(C)C)c2CC(=O)NS(=O)(=O)c2ncc(C(C)(C)O)s2)ccn1` [Example 106, 2-(4-Fluoro-2-isopropyl-6-(2-methoxypyridin-4-yl)phenyl)-N-((5-(2-hydroxypropan-2-yl)thiazol-2-yl)sulfonyl)acetamide] and `CCc1cccc(S(=O)(=O)NC(=O)Cc2c(-c3ccnc(OC)c3)cc(F)cc2C(C)C)c1` [Example 117] cannot be ordered by pIC50: at least 5.30 for the first, at least 6.30 for the second.

`COc1cc(-c2cc(F)cc(C(C)C)c2CC(=O)NS(=O)(=O)c2c(F)cc(C)cc2F)ccn1` [Example 113] and `COc1cc(-c2cc(F)cc(C(C)C)c2CC(=O)NS(=O)(=O)c2cc3ccccc3o2)ccn1` [Example 116] cannot be ordered by pIC50: at least 6.00 for the first, at least 6.00 for the second.

`COc1cc(-c2cc(F)cc(C(C)C)c2CC(=O)NS(=O)(=O)CC2(C#N)CCCCC2)ccn1` [Example 114] and `COc1cc(-c2cc(F)cc(C(C)C)c2CC(=O)NS(=O)(=O)c2cccc3ccoc23)ccn1` [Example 115] cannot be ordered by pIC50: at least 6.00 for the first, at least 6.00 for the second.
